Source: patent publication US9102688B2, “Sulfonaminoquinoline hepcidin antagonists” (Vifor (International) AG, priority 2011, dated 2015)

Target: T1, human ferroportin (Homo sapiens, UniProt Q9NP59)
T1 construct: expressed in transfected cells
T1 sequence (Q9NP59 1-571): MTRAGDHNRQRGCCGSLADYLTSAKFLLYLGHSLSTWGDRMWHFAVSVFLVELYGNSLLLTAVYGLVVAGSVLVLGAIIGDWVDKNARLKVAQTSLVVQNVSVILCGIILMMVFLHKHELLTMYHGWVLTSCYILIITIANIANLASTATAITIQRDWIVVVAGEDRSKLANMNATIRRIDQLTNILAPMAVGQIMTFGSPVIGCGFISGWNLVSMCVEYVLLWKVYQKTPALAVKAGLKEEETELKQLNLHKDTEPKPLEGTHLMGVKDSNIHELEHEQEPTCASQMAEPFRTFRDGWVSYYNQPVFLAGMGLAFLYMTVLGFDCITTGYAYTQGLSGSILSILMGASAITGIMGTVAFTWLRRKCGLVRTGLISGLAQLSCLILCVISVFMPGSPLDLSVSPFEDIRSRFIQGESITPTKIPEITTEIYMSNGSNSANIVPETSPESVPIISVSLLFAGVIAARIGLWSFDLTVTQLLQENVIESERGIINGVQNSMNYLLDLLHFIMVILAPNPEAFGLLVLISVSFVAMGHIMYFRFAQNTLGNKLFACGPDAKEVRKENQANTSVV
Test: ferroportin internalization assay (inhibition of hepcidin-induced internalization of Fpn)
Format: cell-based
Conditions: MDCK-FPN-HaloTag cells, 100 nM hepcidin, overnight incubation; concentration range from 0.04 to 40 μM
Method in brief: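 MDCK cells stably expressing human ferroportin–HaloTag were labelled with TMR ligand, then incubated overnight at 37 °C with compound plus 100 nM hepcidin (final). After fixation and nuclear staining, confocal imaging quantified membrane Fpn fluorescence to measure blocking of hepcidin-induced internalization.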

Row | SMILES | IC50
1 | CN1C(c2ccc(C(F)(F)F)nc2)c2ccc3cccnc3c2NS1(=O)=O (stereo not shown) [Example 386, 2-Methyl-1-(6-trifluoromethyl-pyridin-3-yl)-1,4-dihydro-2H-3-thia-2,4,5-triaza-phenanthrene 3,3-dioxide] | 960 nM
2 | Cc1cccc(S(=O)(=O)Nc2cccc3cccnc23)c1 [Example 19, 3-Methyl-N-quinolin-8-yl-benzenesulfonamide] | 2090 nM
3 | O=[N+]([O-])c1ccccc1S(=O)(=O)Nc1cccc2cccnc12 [Example 6, 2-Nitro-N-quinolin-8-yl-benzenesulfonamide] | 2900 nM
4 | O=S1(=O)Nc2c(ccc3cccnc23)-c2cc(Cl)ccc21 [Example 325, 9-Chloro-5H-6-thia-4,5-diaza-chrysene 6,6-dioxide] | 770 nM
5 | CCC1c2ccc3cccnc3c2NS(=O)(=O)N1C (stereo not shown) [Example 412, 1-Ethyl-2-methyl-1,4-dihydro-2H-3-thia-2,4,5-triaza-phenanthrene 3,3-dioxide] | 2220 nM
6 | O=S(=O)(Nc1cc(F)cc2cccnc12)c1ccccn1 [Example 236, Pyridine-2-sulfonic acid (6-fluoro-quinolin-8-yl)-amide] | 2370 nM
7 | CN(C)CCN(C)c1cc2c(c3ncccc13)NS(=O)(=O)c1ccccc1-2 [Example 552, N-(6,6-Dioxo-5,6-dihydro-6λ*6*-thia-4,5-diaza-chrysen-12-yl)-N,N′,N′-trimethyl-ethane-1,2-diamine] | 5000 nM
8 | O=C(NCCN1CCCCC1)c1ccnc2c3c(ccc12)-c1ccccc1S(=O)(=O)N3 [Example 544, 6,6-Dioxo-5,6-dihydro-6λ*6*-thia-4,5-diaza-chrysene-1-carboxylic acid (2-piperidin-1-yl-ethyl)-amide] | 2000 nM
9 | CN(C)C(=O)c1ccnc2c3c(ccc12)-c1ccccc1S(=O)(=O)N3 [Example 541, 6,6-Dioxo-5,6-dihydro-6λ*6*-thia-4,5-diaza-chrysene-1-carboxylic acid dimethylamide] | 21000 nM
10 | CNC(=O)c1ccnc2c3c(ccc12)-c1ccccc1S(=O)(=O)N3 [Example 542, 6,6-Dioxo-5,6-dihydro-6λ*6*-thia-4,5-diaza-chrysene-1-carboxylic acid methylamide] | 4770 nM
11 | O=S(=O)(Nc1cc(F)cc2cccnc12)c1c(F)cccc1F [Example 94, 2,6-Difluoro-N-(6-fluoro-quinolin-8-yl)-benzenesulfonamide] | 1000 nM
12 | COc1cc(NS(=O)(=O)c2ccc(C)cc2N)c2ncccc2c1 [Example 80, 2-Amino-N-(6-methoxy-quinolin-8-yl)-4-methyl-benzenesulfonamide] | 585 nM
13 | CN(C)CCNCc1cc(C2c3ccc4cccnc4c3NS(=O)(=O)N2C)ccc1F (stereo not shown) [Example 425, N′-[2-Fluoro-5-(2-methyl-3,3-dioxo-1,2,3,4-tetrahydro-3λ*6*-thia-2,4,5-triaza-phenanthren-1-yl)-benzyl]-N,N-dimethyl-ethane-1,2-diamine] | 7410 nM
14 | COCCNc1ccc2c(c1)-c1cc(Cl)c3cccnc3c1NS2(=O)=O [Example 507, (12-Chloro-6,6-dioxo-5,6-dihydro-6λ*6*-thia-4,5-diaza-chrysen-9-yl)-(2-methoxy-ethyl)-amine] | 1980 nM
15 | O=S1(=O)Nc2c(ccc3cccnc23)-c2cc(N3CCC(O)C3)ccc21 (stereo not shown) [Example 506, 1-(6,6-Dioxo-5,6-dihydro-6λ*6*-thia-4,5-diaza-chrysen-9-yl)-pyrrolidin-3-ol] | 2010 nM
16 | O=S(=O)(Nc1cccc2cccnc12)c1cccc(Cl)c1Cl [Example 67, 2,3-Dichloro-N-quinolin-8-yl-benzenesulfonamide] | 7090 nM
17 | CN1C(c2ccncc2F)c2ccc3cccnc3c2NS1(=O)=O (stereo not shown) [Example 387, 1-(3-Fluoro-pyridin-4-yl)-2-methyl-1,4-dihydro-2H-3-thia-2,4,5-triaza-phenanthrene 3,3-dioxide] | 1600 nM
18 | O=S1(=O)Nc2c(ccc3cccnc23)-c2ccc(F)cc21 [Example 330, 8-Fluoro-5H-6-thia-4,5-diaza-chrysene 6,6-dioxide] | 1620 nM
19 | CN1C(c2ccc(F)c(CN3CCNCC3)c2)c2ccc3cccnc3c2NS1(=O)=O (stereo not shown) [Example 427, 1-(4-Fluoro-3-piperazin-1-ylmethyl-phenyl)-2-methyl-1,4-dihydro-2H-3-thia-2,4,5-triaza-phenanthrene 3,3-dioxide] | 4490 nM
20 | O=S1(=O)Nc2c(cc(NCCN3CCOCC3)c3cccnc23)-c2ccccc21 [Example 547, (6,6-Dioxo-5,6-dihydro-6λ*6*-thia-4,5-diaza-chrysen-12-yl)-(2-morpholin-4-yl-ethyl)-amine] | 22000 nM
21 | O=S1(=O)Nc2c(cc(Br)c3cccnc23)-c2ccccc21 [Example 545, 12-Bromo-5H-6-thia-4,5-diaza-chrysene 6,6-dioxide] | 12600 nM
22 | O=S1(=O)Nc2c(cc(Cl)c3cccnc23)-c2cc(OC3CCCC3)ccc21 [Example 514, 12-Chloro-9-cyclopentyloxy-5H-6-thia-4,5-diaza-chrysene 6,6-dioxide] | 420 nM
23 | O=S(=O)(Nc1cccc2cccnc12)c1c(F)cccc1F [Example 64, 2,6-Difluoro-N-quinolin-8-yl-benzenesulfonamide] | 1140 nM
24 | CN1C(c2ccc(C(F)(F)F)cc2)c2ccc3cccnc3c2NS1(=O)=O (stereo not shown) [Example 385, 2-Methyl-1-(4-trifluoromethyl-phenyl)-1,4-dihydro-2H-3-thia-2,4,5-triaza-phenanthrene 3,3-dioxide] | 1370 nM
25 | O=S(=O)(Nc1cccc2cccnc12)c1cnccn1 [Example 230, Pyrazine-2-sulfonic acid quinolin-8-ylamide] | 1910 nM
26 | O=S(=O)(Nc1cc(F)c(Cl)c2cccnc12)c1ccccc1 [Example 82, N-(5-Chloro-6-fluoro-quinolin-8-yl)-benzenesulfonamide] | 1500 nM
27 | O=S1(=O)Nc2c(cc(N3CCOCC3)c3cccnc23)-c2ccccc21 [Example 549, 12-Morpholin-4-yl-5H-6-thia-4,5-diaza-chrysene 6,6-dioxide] | 1140 nM
28 | N#Cc1ccc(S(=O)(=O)Nc2ccc(C(F)(F)F)c3cccnc23)cn1 [Example 240, 6-Cyano-pyridine-3-sulfonic acid (5-trifluoromethyl-quinolin-8-yl)-amide] | 2600 nM
